# From patent US20130116231A1, “TYROSINE KINASE INHIBITORS” (Merck Sharp & Dohme Corp., priority 2010, published 2013)
# Target: T1, human c-Met (Homo sapiens, UniProt P08581)
# T1 construct: Recombinant GST-tagged cytosolic domains of human c-Met; 6xHis; made in house; host or cells: Sf9 or Sf21 insect cells (baculovirus)
# Assay: in vitro kinase assay (homogeneous time-resolved tyrosine kinase assay, METKA)
# Format: biochemical
# Details: recombinant GST-tagged c-Met cytosolic domain, HTRF, 50 μM MgATP; read-out: Biological Activity (METKA IC50) Activity Code
# Description: Recombinant GST-tagged cytosolic domains of human c-Met and other receptor tyrosine kinases including mouse c-Met, human Ron, KDR, IGFR, EGFR, FGFR, Mer, TrkA and Tie2 are used to determine whether the compounds of the instant invention modulate the enzymatic activities of these kinases.
# Soluble recombinant GST-tagged cytosolic domains of c-Met and other receptor tyrosine kinases are expressed in a baculovirus system (Pharmingen) according to a protocol recommended by the manufacturer. The c-DNA encoding each cytosolic domain is subcloned into a baculovirus expression vector (pGcGHLT-A, B or C, Pharmingen) containing an in frame 6× histidine tag and a GST tag. The resulting plasmid construct and BaculoGold baculovirus DNA (Pharmingen) are used to co-transfect Sf9 or Sf21 insect cells. After confirming expression of GST-tagged kinase fusion, a high titer recombinant baculovirus stock is produced, expression conditions are optimized, and a scaled up expression of rat KDR-GST fusion is performed. The fusion kinase is then purified from the insect cell lysate by affinity chromatography using glutathione agarose (Pharmingen). The purified protein is dialyzed against 50% glycerol, 2 mM DTT, 50 mM Tris-HCl (pH 7.4) and stored at −20° C. The protein concentrations of the fusion proteins are determined using Coomassie Plus Protein Assay (Pierce) with BSA as standard.
# The kinase activities of c-Met and other kinases are measured using a modified version of the homogeneous time-resolved tyrosine kinase assay described by Park et al. (1999, Anal. Biochem. 269:94-104).
# The procedure for determining the potency of a compound to inhibit c-Met kinase comprises the following steps: • 1. Prepare 3-fold serial diluted compound solutions in 100% dimethyl sulfoxide (DMSO) at 20× of the desired final concentrations in a 96 well plate. • 2. Prepare a master reaction mix containing 6.67 mM MgCl2, 133.3 mM NaCl, 66.7 mM Tris-HCl (pH 7.4), 0.13 mg/ml BSA, 2.67 mM dithiothreitol, 0.27 nM recombinant c-Met and 666.7 nM biotinylated synthetic peptide substrate (biotin-ahx-EQEDEPEGDYFEWLE-CONH2) (SEQ.ID.NO.:1). • 3. In a black assay plate, add 2.5 μl of compound solution (or DMSO) and 37.5 μl of master reaction mix per well. Initiate the kinase reaction by adding 10 μl of 0.25 mM MgATP per well. Allow the reactions to proceed for 80 min at room temperature. The final conditions for the reaction are 0.2 nM c-Met, 0.5 μM substrate, 50 μM MgATP, […], 100 mM NaCl, 2 mM DTT, 0.1 mg/ml BSA, 50 mM Tris (pH 7.4) and 5% DMSO. • 4. Stop the kinase reaction with 50 μl of Stop/Detection buffer containing 10 mM EDTA, 25 mM HEPES, 0.1% TRITON X-100, 0.126 μg/ml Eu-chelate labeled anti-phosphotyrosine antibody PY20 (cat. #AD0067, PerkinElmer) and 45 μg/ml Streptavidin-allophycocyanin conjugate (cat. #PJ25S, Prozyme). • 5. Read HTRF signals on a Victor reader (PerkinElmer) in HTRF mode after 60 min. • 6. IC50 is determined by fitting the observed relationship between compound concentration and HTRF signal with a 4-parameter logistic equation. Essentially the same procedure was used to determine the potency of compounds to inhibit mouse c-Met, human Ron, KDR, IGFR, EGFR, FGFR, Mer, TrkA and Tie2 except that the concentration of enzyme varied in individual assays (0.2 nM mouse c-Met; 2.5 nM Ron, 8 nM KDR; 0.24 nM IGFR; 0.24 nM EGFR; 0.14 nM FGFR; 16 nM Mer; 8 nM TrkA; 8 nM Tie2).
# T1 sequence (P08581 956-1390 limits assumed): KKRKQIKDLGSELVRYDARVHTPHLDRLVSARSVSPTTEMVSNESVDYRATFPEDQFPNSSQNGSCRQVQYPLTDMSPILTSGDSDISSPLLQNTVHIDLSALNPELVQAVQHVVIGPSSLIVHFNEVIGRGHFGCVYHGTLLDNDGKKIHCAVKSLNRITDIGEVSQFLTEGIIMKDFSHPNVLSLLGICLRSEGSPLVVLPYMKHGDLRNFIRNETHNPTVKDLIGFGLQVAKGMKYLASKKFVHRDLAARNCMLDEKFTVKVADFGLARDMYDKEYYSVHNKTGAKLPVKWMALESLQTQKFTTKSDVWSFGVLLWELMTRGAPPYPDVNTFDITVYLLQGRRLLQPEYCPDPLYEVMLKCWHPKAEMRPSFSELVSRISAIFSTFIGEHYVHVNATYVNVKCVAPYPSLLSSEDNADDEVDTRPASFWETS
row,SMILES,IC50 [nM]
1,"CCn1cc(-n2ccc(=O)c(COc3ccc4ncc(-c5ccccc5C)cc4c3)n2)cn1 [Example 84, 1-(1-ethyl-1H-pyrazol-4-yl)-3-({[3-(2-methylphenyl)quinolin-6-yl]oxy}methyl)pyridazin-4(1H)-one]",< 100
2,"Cn1cc(C(=O)Nc2cccc(OCc3nn(-c4cnn(C)c4)ccc3=O)c2)cn1 [Example 15, 1-Methyl-N-(3-{[1-(1-methyl-1H-pyrazol-4-yl)-4-oxo-1,4-dihydropyridazin-3-yl]methoxy}phenyl)-1H-pyrazole-4-carboxamide]",1000 to 3000
3,"CCOc1cnc2ccc(OCc3nn(-c4cc(F)cc(C#N)c4)ccc3=O)cc2c1 [Example 44, 3-[3-{[(3-ethoxyquinolin-6-yl)oxy]methyl}-4-oxopyridazin-1(4H)-yl]-5-fluorobenzonitrile]",< 100
4,"Cn1cc(-n2ccc(=O)c(COc3ccc4ncc(OCC(C)(C)O)cc4c3)n2)cn1 [Example 62, 3-({[3-(2-Hydroxy-2-methylpropoxy)quinolin-6-yl]oxy}methyl)-1-(1-methyl-1H-pyrazol-4-yl)pyridazin-4(1H)-one]",< 100
5,"COCCOc1cnc2ccc(OCc3nn(-c4ccc(F)c(F)c4)ccc3=O)cc2c1 [Example 30, 1-(3,4-difluorophenyl)-3-({[3-(2-methoxyethoxy)quinolin-6-yl]oxy}methyl)pyridazin-4(1H)-one]",< 100
6,"CCn1cc(-n2ccc(=O)c(COc3ccc4ncc(OCc5noc(C)n5)cc4c3)n2)cn1 [Example 70, 1-(1-ethyl-1H-pyrazol-4-yl)-3-[({3-[(5-methyl-1,2,4-oxadiazol-3-yl)methoxy]quinolin-6-yl}oxy)methyl]pyridazin-4(1H)-one]",< 100
7,"CCn1cc(-n2ccc(=O)c(COc3ccc4ncc(OC5CCOC5)cc4c3)n2)cn1 (stereo not drawn) [Example 69, 1-(1-ethyl-1H-pyrazol-4-yl)-3-({[3-(tetrahydrofuran-3-yloxy)quinolin-6-yl]oxy}methyl)pyridazin-4(1H)-one]",< 100
8,"Cn1cc(-n2ccc(=O)c(COc3ccc4ncc(OC(F)F)cc4c3)n2)cn1 [Example 66, 3-({[3-(difluoromethoxy)quinolin-6-yl]oxy}methyl)-1-(1-methyl-1H-pyrazol-4-yl)pyridazin-4(1H)-one]",< 100
9,"COc1cnc2ccc(OCc3nn(-c4cnn(C)c4)ccc3=O)cc2c1 [Example 35, 3-{[(3-methoxyquinolin-6-yl)oxy]methyl}-1-(1-methyl-1H-pyrazol-4-yl)pyridazin-4(1H)-one]",< 100
10,"COc1ccnc2ccc(OCc3nn(-c4cnn(C)c4)ccc3=O)cc12 [Example 48, 3-{[(4-Methoxyquinolin-6-yl)oxy]methyl}-1-(1-methyl-1H-pyrazol-4-yl)pyridazin-4(1H)-one]",< 100
11,"CCn1cc(-n2ccc(=O)c(COc3ccc4ncc(-c5ccc(F)cc5)cc4c3)n2)cn1 [Example 78, 1-(1-ethyl-1H-pyrazol-4-yl)-3-({[3-(4-fluorophenyl)quinolin-6-yl]oxy}methyl)pyridazin-4(1H)-one]",< 100
12,"COCCOc1cnc2ccc(OCc3nn(-c4cc(F)cc(C#N)c4)ccc3=O)cc2c1 [Example 28, 3-fluoro-5-[3-({[3-(2-methoxyethoxy)quinolin-6-yl]oxy}methyl)-4-oxopyridazin-1(4H)-yl]benzonitrile]",< 100
13,Cn1cc(-c2cnc3ccc(OCc4nn(-c5cnn(C)c5)ccc4=O)cc3c2)cn1 [Example 75],< 100
14,"Cn1cc(-n2ccc(=O)c(COc3ccc4ncncc4c3)n2)cn1 [Example 27, 1-(1-methyl-1H-pyrazol-4-yl)-3-[(quinazolin-6-yloxy)methyl]pyridazin-4(1H)-one]",100 to 1000
15,Cc1ccc2cc(OCc3nn(-c4cnn(C)c4)ccc3=O)ccc2n1 [Example 13],100 to 1000
16,"CCOc1cnc2ccc(OCc3nn(-c4cc(F)cc(F)c4)ccc3=O)cc2c1 [Example 47, 1-(3,5-difluorophenyl)-3-{[(3-ethoxyquinolin-6-yl)oxy]methyl}pyridazin-4(1H)-one]",< 100
17,"Cn1cc(-n2ccc(=O)c(COc3ccc4ncc(-n5cnnc5)cc4c3)n2)cn1 [Example 39, 1-(1-methyl-1H-pyrazol-4-yl)-3-({[3-(4H-1,2,4-triazol-4-yl)quinolin-6-yl]oxy}methyl)pyridazin-4(1H)-one]",100 to 1000

# Results, then the compound that gave them:
row,IC50 [nM],SMILES
1,< 100,"Cn1cc(-n2ccc(=O)c(COc3ccc4ncc(N)cc4c3)n2)cn1 [Example 112, 3-{[(3-Aminoquinolin-6-yl)oxy]methyl}-1-(1-methyl-1H-pyrazol-4-yl)pyridazin-4(1H)-one]"
2,< 100,"Cn1cc(-c2cnc3ccc(COc4nn(-c5cnn(C)c5)ccc4=O)cc3c2)cn1 [Example 129, 1-(1-methyl-1H-pyrazol-4-yl)-3-{[3-(1-methyl-1H-pyrazol-4-yl)quinolin-6-yl]methoxy}pyridazin-4(1H)-one]"
3,100 to 1000,"CC(Cc1nn(-c2cnn(C)c2)ccc1=O)c1ccc2ncccc2c1 (single isomer, unassigned) [Example 126, 1-(1-methyl-1H-pyrazol-4-yl)-3-(2-quinolin-6-ylpropyl)pyridazin-4(1H)-one]"
4,100 to 1000,"Cn1cc(-n2ccc(=O)c(CCc3ccc(NCCCCO)cc3)n2)cn1 [Example 118, 3-(2-{4-[(4-hydroxybutyl)amino]phenyl}ethyl)-1-(1-methyl-1H-pyrazol-4-yl)pyridazin-4(1H)-one]"
5,< 100,"COCCOc1cnc2ccc(NCc3nn(-c4cnn(C)c4)ccc3=O)cc2c1 [Example 102, 3-({[3-(2-Methoxyethoxy)quinolin-6-yl]amino}methyl)-1-(1-methyl-1H-pyrazol-4-yl)pyridazin-4(1H)-one]"
6,100 to 1000,"Cn1cc(-n2ccc(=O)c(COc3ccc(N)cc3)n2)cn1 [Example 115, 3-((4-aminophenoxy)methyl)-1-(1-methyl-1H-pyrazol-4-yl)pyridazin-4(1H)-one]"
7,1000 to 3000,"COc1ccnc2ccc(COc3nn(-c4cnn(C)c4)ccc3=O)cc12 [Example 137, 3-[(4-methoxyquinolin-6-yl)methoxy]-1-(1-methyl-1H-pyrazol-4-yl)pyridazin-4(1H)-one]"
8,< 100,"CCc1ccnc2ccc(OCc3nn(-c4cnn(C)c4)ccc3=O)cc12 [Example 98, 3-{[(4-Ethylquinolin-6-yl)oxy]methyl}-1-(1-methyl-1H-pyrazol-4-yl)pyridazin-4(1H)-one]"
9,< 100,"CCn1cc(-n2ccc(=O)c(COc3ccc4ncc(-c5ccc(C(F)(F)F)cc5)cc4c3)n2)cn1 [Example 89, 1-(1-ethyl-1H-pyrazol-4-yl)-3-[({3-[4-(trifluoromethyl)phenyl]quinolin-6-yl}oxy)methyl]pyridazin-4(1H)-one]"
10,100 to 1000,"CCOc1cnc2ccc(NCc3nn(-c4cnn(C)c4)ccc3=O)cc2c1 [Example 103, 3-{[(3-ethoxyquinolin-6-yl)amino]methyl}-1-(1-methyl-1H-pyrazol-4-yl)pyridazin-4(1H)-one]"
11,1000 to 3000,"COC(=O)C(Cc1nn(-c2cnn(C)c2)ccc1=O)c1ccc2ncccc2c1 (stereo not drawn) [Example 150, Methyl 3-[1-(1-methyl-1H-pyrazol-4-yl)-4-oxo-1,4-dihydropyridazin-3-yl]-2-(quinolin-6-yl)propanoate]"
12,100 to 1000,"CCn1cc(-n2ccc(=O)c(OCc3ccc4ncccc4c3)n2)cn1 [Example 128, 1-(1-ethyl-1H-pyrazol-4-yl)-3-(quinolin-6-ylmethoxy)pyridazin-4(1H)-one]"
13,< 100,"CC(Cc1nn(-c2cnn(C)c2)ccc1=O)c1ccc2ncccc2c1 (single isomer, unassigned) [Example 125, 1-(1-methyl-1H-pyrazol-4-yl)-3-(2-quinolin-6-ylpropyl)pyridazin-4(1H)-one]"
